The record followed here is PMC11822212, “High-throughput screening identifies Aurora kinase B as a critical therapeutic target for Merkel cell carcinoma” (Nature Communications, 2025).

For one test, the system named is HACAT cells. Kind of test: qHTS cell viability (CellTiter-Glo, 72 h; primary screen), control cell line. Type of test: cell-based, human. (In general: Quantitative high-throughput screening tests each substance at several concentrations.)
A further test relates to CRL-7250 cells. The description is as above. Type of test: cell-based.
Another test concerns NIH-3T3 cells. The test is described as above. Type of test: cell-based, mouse.
The test system of another test is WAGA cells (VP-MCC). Briefly: qHTS cell viability (CellTiter-Glo, 72 h; primary and follow-up small molecule screen). Type of test: cell-based, human.
In a further test the test system is MCC26 cells (VN-MCC). Described as above. Type of test: cell-based, human.
Test [1] concerns six MCC cell lines and four control cell lines. Kind of test: qHTS cell viability, all 10 cell lines screened. Type of test: cell-based. To be noted: NPC library; therapeutic window: Control avg AUC minus MCC avg AUC.
For test [2], the system named is VP-MCC cell lines (WAGA, MKL-1, MKL-2). Kind of test: qHTS cell viability, VP-MCC cell lines as a group (mean AUC, VP.MCC.avg). The class given is cell-based, human. The following applies: NPC library; for VP-MCC_Avg_AUC: mean AUC of VP-MCC cell lines; for Control-VP-MCC: therapeutic window: Control avg AUC minus VP-MCC avg AUC.
A further test has as its system UISO cells (VN-MCC). Kind of test: qHTS cell viability (CellTiter-Glo, 72 h; primary and follow-up small molecule screen). Type of test: cell-based, human.
The test system of test [3] is VN-MCC cell lines (MCC13, MCC26, UISO). Kind of test: qHTS cell viability, VN-MCC cell lines as a group (mean AUC, VN.MCC.avg). The class given is cell-based, human. To be noted: NPC library; for VN-MCC_Avg_AUC: mean AUC of VN-MCC cell lines; for Control-VN-MCC: therapeutic window: Control avg AUC minus VN-MCC avg AUC.
For the next test, the system named is MKL-1 cells (VP-MCC). Briefly: qHTS cell viability (CellTiter-Glo, 72 h; primary and follow-up small molecule screen). The class given is cell-based, human.
Test [4] relates to MCC cell lines (WAGA, MKL-1, MKL-2, MCC13, MCC26, UISO). Kind of test: qHTS cell viability, all six MCC cell lines as a group (mean AUC, MCC.avg). Type of test: cell-based, human. To be noted: NPC library; mean AUC of six MCC cell lines.
The test system of the next test is MCC13 cells (VN-MCC). Briefly: qHTS cell viability (CellTiter-Glo, 72 h; primary and follow-up small molecule screen). The class given is cell-based, human.
In test [5] the test system is control cell lines (HACAT, HEK293T, CRL-7250, NIH-3T3). Kind of test: qHTS cell viability, control cell lines as a group (mean AUC, Control.avg). Type of test: cell-based. To be noted: NPC library; mean AUC of control cell lines.
The test system of another test is HEK293T cells. Kind of test: qHTS cell viability (CellTiter-Glo, 72 h; primary screen), control cell line. The class given is cell-based, human.
A further test has as its system MKL-2 cells (VP-MCC). Briefly: qHTS cell viability (CellTiter-Glo, 72 h; primary and follow-up small molecule screen). Type of test: cell-based, human.
Where [6] appears, read: NPC library, qHTS dose-response AUC, HACAT control.
Where [7] appears, read: NPC library, qHTS dose-response AUC, CRL7250 control.
Where [8] appears, read: NPC library, qHTS dose-response AUC, NIH3T3 control.
[9] abbreviates: NPC library, qHTS dose-response AUC, WAGA.
[10] abbreviates: NPC library, qHTS dose-response AUC, MCC26.
[11] abbreviates: NPC library, qHTS dose-response AUC, UISO.
[12] abbreviates: NPC library, qHTS dose-response AUC, MKL1.
The mark [13] stands for this setting: NPC library, qHTS dose-response AUC, MCC13.
Setting [14] is: NPC library, qHTS dose-response AUC, HEK293T control.
Setting [15] is: NPC library, qHTS dose-response AUC, MKL2.

Structures can show the parent of a compound that is named as a salt.

In the case of `O=C1OC(CCN2CCCCC2)OC1(c1ccccc1)c1ccccc1` (stereo not shown) [Pipoxolan hydrochloride], the HACAT_AUC in the test with HACAT cells (setting [6]) is listed as 493.052. This compound yielded a CRL7250_AUC in the test on CRL-7250 cells (setting [7]) of 487.056. The compound further yielded an NIH3T3_AUC in the test with NIH-3T3 cells (setting [8]) of 468.074. For the same compound, the WAGA_AUC in the test on WAGA cells (VP-MCC) (setting [9]) is reported as 433.006. The compound also displayed an MCC26_AUC with MCC26 cells (VN-MCC) (setting [10]) of 460.749. Moreover, the Control-MCC in [1] was 37.5609. In test [2], the VP-MCC_Avg_AUC amounted to 421.002 and the Control-VP-MCC is 52.3854. In the test with UISO cells (VN-MCC) (setting [11]), this compound returned a UISO_AUC of 412.652. In test [3], this compound displayed a VN-MCC_Avg_AUC of 450.651 and a Control-VN-MCC of 22.7364. The MKL1_AUC in the test with MKL-1 cells (VP-MCC) (setting [12]) worked out at 437.466. The MCC_Avg_AUC in test [4] is given as 435.827. This compound also came in with an MCC13_AUC with MCC13 cells (VN-MCC) (setting [13]) of 478.552. In test [5], this compound had a Control_Avg_AUC of 473.388. In the test on HEK293T cells (setting [14]), this compound came in with an HEK293T_AUC of 445.369. The compound further gave an MKL2_AUC in the test with MKL-2 cells (VP-MCC) (setting [15]) of 392.534.

With `Cc1nc2ccccn2c(=O)c1CCN1CCC(C(=O)c2ccc(F)cc2)CC1` [Pirenperone], the HACAT_AUC with HACAT cells (setting [6]) worked out at 457.02; in the test on HACAT cells (area under the dose-response curve, HACAT control cells, AUC<450 = reduced viability), 457.02. Besides, the CRL7250_AUC is listed as 480.924 in the test on CRL-7250 cells (setting [7]) and 480.924 in the test on CRL-7250 cells (area under the dose-response curve, CRL7250 control cells, AUC<450 = reduced viability). The NIH3T3_AUC is 477.551 in the test on NIH-3T3 cells (setting [8]) and 477.551 in the test on NIH-3T3 cells (area under the dose-response curve, NIH3T3 control cells, AUC<450 = reduced viability). Also, the WAGA_AUC with WAGA cells (VP-MCC) (setting [9]) is 415.843; with WAGA cells (VP-MCC) (area under the dose-response curve, WAGA cells, AUC<450 = reduced viability) it was 415.843. Also, the MCC26_AUC in the test with MCC26 cells (VN-MCC) (setting [10]) worked out at 401.594; in the test with MCC26 cells (VN-MCC) (area under the dose-response curve, MCC26 cells, AUC<450 = reduced viability), 401.594. The Control-MCC in test [1] is listed as 47.4309. The compound also displayed a VP-MCC_Avg_AUC in test [2] of 411.748. This compound also gave a Control-VP-MCC in test [2] of 54.686. Moreover, the UISO_AUC was 436.893 in the test with UISO cells (VN-MCC) (setting [11]) and 436.893 with UISO cells (VN-MCC) (area under the dose-response curve, UISO cells, AUC<450 = reduced viability). In [3], this compound displayed a VN-MCC_Avg_AUC of 426.258. The compound further came in with a Control-VN-MCC in test [3] of 40.1758. Further, the MKL1_AUC in the test with MKL-1 cells (VP-MCC) (setting [12]) and in the test on MKL-1 cells (VP-MCC) ({}) was 418.427 each time. The MCC_Avg_AUC in test [4] is 419.003. Further, the MCC13_AUC amounted to 440.287 with MCC13 cells (VN-MCC) (setting [13]) and 440.287 in the test on MCC13 cells (VN-MCC) (area under the dose-response curve, MCC13 cells, AUC<450 = reduced viability). This compound returned a Control_Avg_AUC in test [5] of 466.434. In addition, the HEK293T_AUC in the test on HEK293T cells (setting [14]) came to 450.239; with HEK293T cells (area under the dose-response curve, HEK293T control cells, AUC<450 = reduced viability), 450.239. Besides, the MKL2_AUC is 400.974 in the test on MKL-2 cells (VP-MCC) (setting [15]) and 400.974 in the test with MKL-2 cells (VP-MCC) (area under the dose-response curve, MKL-2 cells, AUC<450 = reduced viability).

Turning to `CC[N+]1(CC)CCC(=C(c2ccccc2)c2ccccc2)C1C` (stereo not shown) [Prifinium bromide], the HACAT_AUC with HACAT cells (setting [6]) is reported as 452.968. Further, the CRL7250_AUC with CRL-7250 cells (setting [7]) is recorded as 489.513. The compound further registered an NIH3T3_AUC in the test with NIH-3T3 cells (setting [8]) of 466.796. For the same compound, in the test with WAGA cells (VP-MCC) (setting [9]), the WAGA_AUC came out at 419.066. The same compound registered an MCC26_AUC with MCC26 cells (VN-MCC) (setting [10]) of 492.512. Further, the Control-MCC in test [1] came to 24.7984. In test [2], this compound yielded a VP-MCC_Avg_AUC of 414.775 and a Control-VP-MCC of 53.5255. Besides, the UISO_AUC in the test on UISO cells (VN-MCC) (setting [11]) is on record as 446.738. Also, in test [3], the VN-MCC_Avg_AUC was determined as 472.229 and the Control-VN-MCC is -3.929. The compound also gave an MKL1_AUC in the test with MKL-1 cells (VP-MCC) (setting [12]) of 413.62. Also, the MCC_Avg_AUC in test [4] turned out to be 443.502. The MCC13_AUC in the test on MCC13 cells (VN-MCC) (setting [13]) is on record as 477.436. The Control_Avg_AUC in test [5] stood at 468.3. The HEK293T_AUC with HEK293T cells (setting [14]) came out at 463.923. In the test with MKL-2 cells (VP-MCC) (setting [15]), this compound registered an MKL2_AUC of 411.638.
